Laboratory results: patent US20100216724A1, “USE OF F[…] (196-203 ) AS A […] AGENT” (priority 2007, published 2010)
Where no end group is shown, it is not given here.

Test system: drug-resistant Mycobacterium tuberculosis
Conditions: drug-resistant Mycobacterium tuberculosis growth; peptide 10 micrograms per ml; seven days

Substance: SRNRCNDQ-NH2
- % inhibition: 0.0%
